This is an account of results in PMC6274786 (International Journal of Molecular Sciences, 2018).

The test system of one experiment is MES-induced seizure. As to the kind of experiment: Maximal electroshock (MES)-induced seizure. The experiment is classed as in vivo, Wistar rats. Particulars: 10 mg/kg i.p.; for MES-Induced Seizure (protection class): 50 Hz, 120 mA, 1 s. An excerpt:
As previously described, the seizures were induced in rats with a 50 Hz alternating current of 120 mA intensity. The current was applied through ear electrodes for 1 s. Protection against the spread of MES-induced seizure was defined as the abolition of the tonic hind limb extension (THLE) component of the seizure. For the first screening of protective effects of test compounds 1–16 in the MES-induced seizure model, the animals were divided into eighteen groups of seven rats (n = 7) as follows; group (1) control group injected with vehicle (SAL), group (2) positive control group in which rats were injected with PHT at a dose of 10 mg/kg (this being the minimal dose of PHT that protected animals against the spread of MES-induced seizures without mortality), and groups (3)–(18) animals in the experimental groups were administered H3R antagonists 1–16 at a dose of 10 mg/kg. In another MES experiment in three separate groups of six rats (n = 6), H3R antagonist 4 with the most promising protection in MES model was administered at doses of 2.5, 5, or 15 mg/kg, i.p. 30–45 min before the MES challenge.
Background: The maximal electroshock test induces tonic seizures with an electrical stimulus.

Another experiment deals with PTZ-induced seizure. As to the kind of experiment: Pentylenetetrazole (PTZ)-induced seizure. In kind it is in vivo, Wistar rats. The following applies: 10 mg/kg i.p.; for protective effect in PTZ-induced seizure (in words): observed over 30 min, vs saline-treated group; for PTZ-Induced Seizure (protection class): PTZ 60 mg/kg. How it is done:
(§1) In this study and according to previously used protocols, two chemical agents have been used to induce seizures, namely pentylenetetrazole (PTZ, 60 mg/kg, i.p.) and strychnine (STR, 3.5 mg/kg, i.p.). PTZ 60 mg/kg or STR 3.5 mg/kg were administered i.p. to all groups of seven rats (n = 7), that is, animals pretreated with vehicle or test compounds 1–16. Vehicle, VPA (300 mg/kg, i.p.), [26, 47, 48, 49] or test compounds 1–16 (10 mg/kg, i.p.) were systemically administered 30–45 min before PTZ (60 mg/kg, i.p.) or STR (3.5 mg/kg, i.p.) injection, and animals were directly observed for any signs of convulsion for a duration of 30 min. The observed scores as well as percent protection against generalized tonic-clonic seizure (GTCS) were graded and scaled according to the Racine scale (stage 0, no change in behavior; stage 1, stereotype mouthing, eye blinking, and/or mild facial clonus; stage 2, head nodding and/or severe facial clonus; stage 3, myoclonic jerk in forelimbs; stage 4, clonic convulsions in the forelimbs with rearing; stage 5, generalized colonic convulsions associated with loss of balance) to evaluate the protection provided by the respective test compound against seizures. The animals were divided into eighteen groups of seven rats (n = 7) and treated as follows.
(§2) (1) Control group injected with vehicle + PTZ (SAL group), (2) positive control group in which rats were injected with VPA (300 mg/kg) + PTZ (VPA group), and animals in the test groups (3)–(18) were systemically administered with test compounds 1–16 (10 mg/kg), respectively. An additional PTZ experiment was conducted using three different groups of seven rats (n = 7), the H3R ligand with the most promising protection in PTZ model was administered at doses of 2.5, 5, or 15 mg/kg, i.p. 30–45 min before the PTZ challenge. […] The same experimental procedure was followed in the STR-induced seizure model applying the reference drug VPA, which was used at a dose of 300 mg/kg, i.p. (Figure 3, Table 2).

A further experiment concerns STR-induced seizure. The experiment is described as follows: Strychnine (STR)-induced seizure. Particulars: for protective effect in STR-induced seizure (in words): 30 min observation, vs saline-treated group; for STR-Induced Seizure (protection class): STR 3.5 mg/kg. The experiment is classed as in vivo, Wistar rats. How it is done: as §1, §2
Another experiment deals with T1, human histamine H3R (Homo sapiens, UniProt Q9Y5N1).
T1 construct: expressed in transfected cells
The experiment is described as follows: [3H]Nα-methylhistamine radioligand displacement assay, HEK-293 cell membranes. In kind it is binding. How it is done:
As described previously, the affinity for the human histamine H3R was tested utilizing radioligand displacement assays with [^3H]N^α-methylhistamine at membrane preparations from human embryonic kidney (HEK)-293 cells, stably expressing the receptor. […] The analysis of data was conducted by the software GraphPad Prism 7 (San Diego, CA, USA), using the “one-site competition” equation. Ki values were calculated from the 50 percent of inhibitory concentration (IC50) values according to the Cheng-Prusoff equation [44]
For orientation: In a radioligand displacement assay an active substance lowers the binding of a labelled ligand.

A further experiment addresses T2, human H1 receptor (Homo sapiens, UniProt P35367).
T2 construct: purchased PerkinElmer; host or cells: CHO-K1 cells, stably transfected (membranes)
The experiment is described as follows: Radioligand binding, membranes from CHO-K1 cells. Particulars: for fold lower affinity at hH1- and H4Rs than at H3R: selectivity toward H3Rs. How it is done:
Radioligand binding was performed as previously described using membranes from CHO-K1 cells stably transfected with the human H1 receptor (PerkinElmer., Waltham, MA, USA). Data were fitted to a one-site curve-fitting equation with Prism 6 (GraphPad Software, city, state, country) and Ki values were estimated from the Cheng–Prusoff equation [44].

In a further experiment the target is T3, hH4R (Homo sapiens, UniProt Q9H3N8).
T3 construct: expressed in transfected cells; host or cells: Sf9 insect cells (membrane preparations)
As to the kind of experiment: H4R radioligand displacement assay, Sf9 cell membrane preparations. In kind it is binding. How it is done:
H4R radioligand displacement assays were performed with Sf9 cell membrane preparations, expressing the hH4R, as described previously. Assays ran in triplicates with four appropriate concentrations of the test compound. Data were analyzed by GraphPad Prism 7, using the “one-site competition” equation.

[1] abbreviates: mean with 95% confidence interval, read-out: In Vitro Affinity Ki (hH3R) in nM [CI].
The mark [2] stands for this setting: 10 mg/kg i.p. co-administered with RAMH 10 mg/kg i.p.

Each structure is given as a SMILES string. Like-named read-outs stand apart in the source and are kept apart here. A value given as a limit tells only on which side of the number the result lay.

T2 sequence (P35367 whole entry): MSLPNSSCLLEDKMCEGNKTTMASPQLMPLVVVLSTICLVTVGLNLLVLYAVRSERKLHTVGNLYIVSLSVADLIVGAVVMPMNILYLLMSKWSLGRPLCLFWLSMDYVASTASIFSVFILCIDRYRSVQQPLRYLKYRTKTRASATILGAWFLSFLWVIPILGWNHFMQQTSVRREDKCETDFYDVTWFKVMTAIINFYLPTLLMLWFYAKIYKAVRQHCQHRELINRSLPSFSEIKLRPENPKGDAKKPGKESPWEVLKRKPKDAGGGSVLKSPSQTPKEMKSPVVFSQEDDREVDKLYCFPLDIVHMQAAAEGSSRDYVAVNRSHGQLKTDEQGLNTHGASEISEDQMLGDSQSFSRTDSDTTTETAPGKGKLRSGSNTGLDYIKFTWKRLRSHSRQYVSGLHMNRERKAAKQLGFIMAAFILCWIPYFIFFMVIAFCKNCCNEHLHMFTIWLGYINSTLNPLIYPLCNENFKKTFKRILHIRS
T1 sequence (Q9Y5N1 whole entry): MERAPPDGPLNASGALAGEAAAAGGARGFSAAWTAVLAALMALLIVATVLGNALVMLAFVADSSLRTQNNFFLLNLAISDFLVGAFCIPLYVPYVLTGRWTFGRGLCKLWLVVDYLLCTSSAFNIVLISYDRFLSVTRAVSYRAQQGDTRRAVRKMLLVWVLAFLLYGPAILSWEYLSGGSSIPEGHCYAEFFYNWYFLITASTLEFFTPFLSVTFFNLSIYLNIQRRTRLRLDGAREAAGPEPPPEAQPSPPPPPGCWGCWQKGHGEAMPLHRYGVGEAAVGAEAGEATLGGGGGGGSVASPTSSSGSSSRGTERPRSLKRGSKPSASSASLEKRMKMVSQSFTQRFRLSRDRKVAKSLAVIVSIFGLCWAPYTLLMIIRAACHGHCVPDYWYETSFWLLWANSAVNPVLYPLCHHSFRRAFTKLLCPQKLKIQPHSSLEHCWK
T3 sequence (Q9H3N8 whole entry): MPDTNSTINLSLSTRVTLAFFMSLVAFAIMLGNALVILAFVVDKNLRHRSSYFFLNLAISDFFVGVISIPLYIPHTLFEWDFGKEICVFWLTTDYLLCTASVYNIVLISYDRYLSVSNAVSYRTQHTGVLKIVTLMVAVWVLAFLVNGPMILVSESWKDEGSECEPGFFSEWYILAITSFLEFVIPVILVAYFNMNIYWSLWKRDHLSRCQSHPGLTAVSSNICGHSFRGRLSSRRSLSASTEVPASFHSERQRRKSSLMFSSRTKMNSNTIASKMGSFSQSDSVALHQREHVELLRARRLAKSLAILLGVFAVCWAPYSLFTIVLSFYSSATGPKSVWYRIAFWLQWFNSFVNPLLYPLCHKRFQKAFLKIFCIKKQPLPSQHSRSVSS

Take `O=C(O)C(=O)O.O=C(c1ccccc1)c1ccc(OCCCCCCN2CCCCCC2)cc1` [Ligand 7, (4-(6-(azepan-1-yl)hexyloxy)phenyl)(phenyl)methanone hydrogen oxalate]: in the experiment on MES-induced seizure, the “MES-Induced Seizure (protection class)” value is listed as “+ (moderate protective effect (tonic hind limb extension (THLE) duration in the range of 2–5 s, seizure score in the range of 2–4))”. In the experiment with PTZ-induced seizure, the “protective effect in PTZ-induced seizure (in words)” value is recorded as “full protective activities” and the “PTZ-Induced Seizure (protection class)” value is given as “++ (high protective effect (THLE duration <1, seizure score 0))”. For the same compound, in the experiment on STR-induced seizure (10 mg/kg i.p.), the “protective effect in STR-induced seizure (in words)” value is reported as “failed to exhibit appreciable protection” and the “STR-Induced Seizure (protection class)” value is on record as “−”. The inhibition constant (Ki) (as a rule, the equilibrium dissociation constant of an inhibitor or competing ligand from its target) at human histamine H3R worked out at 40.5 nM. Moreover, at human H1 receptor, the Ki was determined as 0.915 µM; the “fold lower affinity at hH1- and H4Rs than at H3R” value is “at least 10 fold”. This compound also had a Ki on hH4R of more than 10 µM.
For `CC1CCCN(CCCCCCOc2cccc(C(=O)c3ccccc3)c2)C1.O=C(O)C(=O)O` (stereo not drawn) [Ligand 9, (3-(6-(3-methylpiperidin-1-yl)hexyloxy)phenyl)(phenyl)methanone hydrogen oxalate], the “MES-Induced Seizure (protection class)” value in the experiment with MES-induced seizure is on record as “−”. Besides, the “PTZ-Induced Seizure (protection class)” value in the experiment on PTZ-induced seizure is recorded as “−”. Moreover, the “STR-Induced Seizure (protection class)” value with STR-induced seizure (10 mg/kg i.p.) is given as “−”. Moreover, the Ki was 110 nM at human histamine H3R and 0.915 to 1.34 µM on human H1 receptor.
Regarding `Fc1ccc(OCCCCCCN2CCCCC2)cc1.O=C(O)C(=O)O` [Ligand 11, 1-(6-(4-fluorophenoxy)hexyl)piperidine hydrogen oxalate], the “MES-Induced Seizure (protection class)” value with MES-induced seizure is “−”. In addition, in the experiment on PTZ-induced seizure, the “protective effect in PTZ-induced seizure (in words)” value is given as “full protective activities” and the “PTZ-Induced Seizure (protection class)” value is listed as “++ (high protective effect (THLE duration <1, seizure score 0))”. In addition, in the experiment on STR-induced seizure (10 mg/kg i.p.), the “protective effect in STR-induced seizure (in words)” value is “failed to exhibit appreciable protection” and the “STR-Induced Seizure (protection class)” value was “−”. The Ki on human histamine H3R (setting [1]) was determined as 115 nM.
On to `CC1CCCN(CCCCCCOc2ccc(F)cc2)C1.O=C(O)C(=O)O` (stereo not drawn) [Ligand 12, 1-(6-(4-fluorophenoxy)hexyl)-3-methylpiperidine hydrogen oxalate], for which the “MES-Induced Seizure (protection class)” value with MES-induced seizure is given as “−”. The “PTZ-Induced Seizure (protection class)” value with PTZ-induced seizure is listed as “+ (moderate protective effect (tonic hind limb extension (THLE) duration in the range of 2–5 s, seizure score in the range of 2–4))”. In the experiment on STR-induced seizure (10 mg/kg i.p.), the “STR-Induced Seizure (protection class)” value is reported as “−”. The Ki at human histamine H3R (setting [1]) was 83.6 nM.
Take `Fc1ccc(OCCCCCCN2CCCCCC2)cc1.O=C(O)C(=O)O` [Ligand 13, 1-(6-(4-fluorophenoxy)hexyl)azepane hydrogen oxalate]: in the experiment on MES-induced seizure, the “MES-Induced Seizure Average THLE” value was 6.43 ± 1.14 s and the “MES-Induced Seizure (protection class)” value is “−”. In addition, the “protective effect in MES-induced seizure (in words)” value with MES-induced seizure (vs saline-treated group) is “without protection”. Moreover, in the experiment on PTZ-induced seizure, the “PTZ-Induced Seizure % Protection against GTCS” value was 85.71%; the “PTZ-Induced Seizure Average Seizure Score” value is 2.14 ± 0.47; the “protective effect in PTZ-induced seizure (in words)” value was “weak protection”; the “PTZ-Induced Seizure (protection class)” value is given as “+ (moderate protective effect (tonic hind limb extension (THLE) duration in the range of 2–5 s, seizure score in the range of 2–4))”. Moreover, in the experiment with STR-induced seizure (2.5 mg/kg i.p.), the “STR-Induced Seizure % Protection against GTCS” value is listed as 14.29% and the “STR-Induced Seizure Average Seizure Score” value came to 4.86 ± 0.13. In the experiment on STR-induced seizure (5 mg/kg i.p.), the “STR-Induced Seizure % Protection against GTCS” value worked out at 85.71% and the “STR-Induced Seizure Average Seizure Score” value is given as 3.00 ± 0.31. Further, in the experiment with STR-induced seizure (10 mg/kg i.p.), the “STR-Induced Seizure % Protection against GTCS” value stood at 100%; the “STR-Induced Seizure Average Seizure Score” value is recorded as 2.00 ± 0.35; the “protective effect in STR-induced seizure (in words)” value is on record as “moderate protective effect”; the “STR-Induced Seizure (protection class)” value is recorded as “+ (moderate protective effect (tonic hind limb extension (THLE) duration in the range of 2–5 s, seizure score in the range of 2–4))”. Further, in the experiment with STR-induced seizure (setting [2]), the “STR-Induced Seizure % Protection against GTCS” value is given as 100% and the “STR-Induced Seizure Average Seizure Score” value came to 2.14 ± 0.35. Further, in the experiment with STR-induced seizure (15 mg/kg i.p.), the “STR-Induced Seizure % Protection against GTCS” value is listed as 100% and the “STR-Induced Seizure Average Seizure Score” value is on record as 2.17 ± 0.31. Besides, the Ki at human histamine H3R (setting [1]) was 137 nM. For the same compound, on human H1 receptor, the affinity corresponds to a Ki of 1.34 µM; the “fold lower affinity at hH1- and H4Rs than at H3R” value is “at least 10 fold”. The Ki on hH4R is more than 10 µM.
With `O=C(O)C(=O)O.O=C(c1ccccc1)c1ccc(OCCCCCN2CCCCC2)cc1` [Ligand 14, phenyl(4-(5-(piperidin-1-yl)pentyloxy)phenyl)methanone hydrogen oxalate], the “MES-Induced Seizure (protection class)” value in the experiment with MES-induced seizure is “+ (moderate protective effect (tonic hind limb extension (THLE) duration in the range of 2–5 s, seizure score in the range of 2–4))”. The “PTZ-Induced Seizure (protection class)” value in the experiment on PTZ-induced seizure is “+ (moderate protective effect (tonic hind limb extension (THLE) duration in the range of 2–5 s, seizure score in the range of 2–4))”. Besides, the “STR-Induced Seizure (protection class)” value in the experiment with STR-induced seizure (10 mg/kg i.p.) is recorded as “−”. Further, the inhibition constant (Ki) on human histamine H3R is 36.2 nM.
Turning to `CC1CCCN(CCCCCOc2ccc(C(=O)c3ccccc3)cc2)C1.O=C(O)C(=O)O` (stereo not drawn) [Ligand 15, (4-(5-(3-methylpiperidin-1-yl)pentyloxy)phenyl)(phenyl)methanone hydrogen oxalate], in the experiment on MES-induced seizure, the “MES-Induced Seizure (protection class)” value is “−”. In addition, the “PTZ-Induced Seizure (protection class)” value in the experiment on PTZ-induced seizure is recorded as “+ (moderate protective effect (tonic hind limb extension (THLE) duration in the range of 2–5 s, seizure score in the range of 2–4))”. In the experiment with STR-induced seizure (10 mg/kg i.p.), the “STR-Induced Seizure (protection class)” value is on record as “−”. The Ki on human histamine H3R is 40.2 nM; on human H1 receptor, 0.915 to 1.34 µM.
For the compound `O=C(O)C(=O)O.O=C(c1ccccc1)c1ccc(OCCCCCN2CCCCCC2)cc1` [Ligand 16, (4-(5-(azepan-1-yl)pentyloxy)phenyl)(phenyl)methanone hydrogen oxalate], the “MES-Induced Seizure (protection class)” value in the experiment on MES-induced seizure is “−”. The “PTZ-Induced Seizure (protection class)” value in the experiment with PTZ-induced seizure is recorded as “−”. Besides, the “STR-Induced Seizure (protection class)” value in the experiment with STR-induced seizure (10 mg/kg i.p.) was “−”. Besides, the affinity at human histamine H3R, expressed as Ki, was 38.5 nM.
